Read-outs that look alike come from different tables or passages of the source.
Tests used:
[1] = tested on: KP02 cells; assay: MTT cell viability, KP02; type: cell-based, mouse; conditions: 24 h treatment, viability relative to vehicle
Experimental: (§1) Determination of cell growth was performed using the MTT assay at 24 h. On day 1, pancreatic cancer cell lines were plated at a density of 2 × 10^4 cells/well in black clear-bottom 96-well plates for 24 h prior to treatment in a volume of 100 μL. On day 2, the cells were treated for 24 h with the various drugs concentration (1 μM-100 μM). Untreated cells served as a control. The various drug-solvents (EtOH, DMSO) were added in each control to evaluate a possible solvent cytotoxicity. After the established incubation time with drugs (24 h), MTT (0.5 mg/ml) was added to each well, and after 3–4 h incubation at 37 °C, the supernatant was removed. The formazan crystals were solubilized using 100 μl of DMSO/EtOH (1:1) and the absorbance values at 570 and 630 nm were determined on the multi-mode microplate reader (BioTek instruments, Winooski, VT). Different drug concentrations were assayed in triplicates.
(§2) Statistical analyses and data plotting were performed using GraphPad Prism software version 6.03 (San Diego, CA). Results were expressed as mean ± standard error of the mean of at least 3 biological replicates. EC50 values were calculated by curve fitting normalized viability versus drug concentration. Differences in viability, caspase-3 activity, and tumor volume were analyzed using two-way ANOVA to identify differences and confirmed with paired two tailed t-tests. Mann-Whitney test was used to compare the difference in CBC and biochemistry analyses. Kaplan-Meier survival analyses were used to assess differences between treatment groups and were compared using a log-rank test. A p-value < 0.05 was considered significant for all analyses.

[2] = tested on: Panc02 cells; assay: MTT cell viability, Panc02; type: cell-based; conditions: Mus musculus, 24 h treatment, viability relative to vehicle
Experimental: as §1, §2

[3] = tested on: caspase-3; assay: Caspase-Glo caspase-3 activity in Panc02 cells; type: cell-based, mouse; conditions: 200 μM, 5 h
Experimental: Caspase-3 activity was measured in Panc02 cell lines with a Caspase-Glo® Assay Systems (Promega) according to protocol in which the reagent contain luminogenic caspase substrates that cleaved by activated caspase. […] The contents were then mixed using plate shaker for 30 s, and incubated at room temperature for 90 min. Luminescence signal was measured using multi-mode microplate reader (BioTek). Assay was performed in triplicates, and caspase activity was plotted compared cells treated with DMSO as a control.

[4] = tested on: MIAPaCa-2 cells; assay: MTT cell viability, MIAPaCa-2; type: cell-based; conditions: Homo sapiens, MIA PaCa-2, 24 h treatment, viability relative to vehicle
Experimental: as §1, §2

[5] = target: sigma-2 receptor; conditions: read-out: Affinity (Ki) σ2, cited from earlier work
[6] = tested on: Panc02 tumors; assay: In vivo tumor growth and survival, Panc02 tumors in C57BL/6 mice; conditions: for Effect on tumor volume (in words): daily i.p. treatment, compared to vehicle or gemcitabine
Experimental: In this pre-clinical model, we utilized the Panc02 cell line, which is weakly immunogenic in C57BL/6 mice and aggressive with a subcutaneous inoculum of 1 × 10^5 cells being lethal within 6–8 weeks. In vivo studies with mice were performed to compare the effect of sigma-2 ligands with gemcitabine. Mice treated with vehicle alone (a mixture of 5% DMSO, 5% EtOH, and 10% Cremophor in H2O) served as the control cohort. Female C57BL/6 mice (10 weeks old, National Cancer Institute Laboratories) were injected in the right flank with 200 μL of a single-cell suspension of Panc02 cells in non-supplemented RPMI medium (1 × 10^6 cells per mouse). Treatment began when the mean tumor diameter was ~ 5 mm. […] Tumors were measured three times weekly in two dimensions with a digital caliper, and tumor volumes were calculated by the standard formula of Tumor Volume = Length x Width^2 × 0.5. All mice were euthanized when tumors reached a diameter of 15 mm or had ulcerated.

[7] = tested on: AsPC-1 cells; assay: MTT cell viability, AsPC-1; type: cell-based; conditions: Homo sapiens, ASPC1, 24 h treatment, viability relative to vehicle
Experimental: as §1, §2

[8] = tested on: KCKO cells; assay: MTT cell viability, KCKO; type: cell-based; conditions: Mus musculus, 24 h treatment, viability relative to vehicle
Experimental: as §1, §2

[9] = tested on: AsPC1 cells; assay: MitoSOX Red mitochondrial superoxide by flow cytometry, AsPC1; type: cell-based, human; conditions: 50 μM, 2 h
Experimental: (§3) MitoSOX™ Red reagent is a novel fluorogenic dye specifically targeted to mitochondria in live cells. Oxidation of MitoSOX™ Red reagent by superoxide produces red fluorescence. Mitochondrial superoxide is generated as a byproduct of oxidative phosphorylation. […] MitoSOX™ Red reagent is readily oxidized by superoxide but not by other ROS- or reactive nitrogen species (RNS)–generating systems. Panc02, AsPC-1, KP-2 or BxPC3 cells were seeded into 12-well plates 24 h before treatment with sigma-2 ligands (50 μM) for 2 h at 37°C in presence or absence of α-tocopherol (100 μM) followed by staining with MitoSOX™ Red (5 μM). Two hours after red dye addition, the cells were washed twice with PBS and harvested with trypsin/EDTA buffer. The cells were washed twice with PBS before analysis with FACSCalibur (BD Bioscience, San Jose, CA). The oxidation product of MitoSOX™ Red by mitochondrial superoxide fluoresces with an emission maximus of 580 nm and was detected in the FL3 channel. Experiment was performed in triplicates.

[10] = tested on: BxPC3 cells; assay: MitoSOX Red mitochondrial superoxide by flow cytometry, BxPC3; type: cell-based, human; conditions: 50 μM, 2 h
Experimental: as §3

[11] = tested on: Panc-1 cells; assay: MTT cell viability, Panc-1; type: cell-based; conditions: Homo sapiens, 24 h treatment, viability relative to vehicle
Experimental: as §1, §2

[12] = tested on: BxPC3 cells; assay: MTT cell viability, BxPC3; type: cell-based, human; conditions: 24 h treatment, viability relative to vehicle
Experimental: as §1, §2

[13] = Toxicity evaluation on mice not bearing tumor (CBC, serum chemistry, pathology); type: in vivo, C57BL/6 mice; conditions: for Off-target effects by necropsy and laboratory evaluations: naïve C57BL/6 mice, continuous daily treatment
Experimental: […] Mice from each treatment cohort were assessed for pathologic evaluation (Digestive Diseases Research Core Center at our institution). Blood was collected for complete blood count (CBC) and biochemical analysis (AST, ALT, BUN, total protein, glucose and Cr). Organs were examined grossly and histologically.

[14] = tested on: Panc02 cells; assay: ROS interference in cell viability (MTT with antioxidants); type: cell-based, mouse; conditions: Panc02 cells, ligand 50 μM with NAC 100 μM, 24 h
Experimental: The interference of ROS in cell viability was indirectly determined by MTT assay reported above at 24 h. On day 1, Panc02 cells were plated at a density of 2 × 10^4 cells/well in opaque 96-well, clear-bottom plates 24 h prior to treatment. On day 2, cells were treated with the drugs (50 μM) in the presence or absence of α-tocopherol (100 μM) or N-Acetyl-L-cysteine (100 μM). After incubation (24 h) with drugs, MTT assay was performed as above.

[15] = tested on: Panc02 cells; assay: MitoSOX Red mitochondrial superoxide by flow cytometry, Panc02; type: cell-based, mouse; conditions: Panc02 cells, 50 μM, 2 h
Experimental: as §3

Compound `c1ccc2c(c1)c1ccccc1n2CCCN1CCN(C2CCCCC2)CC1` [F281, 1-Cyclohexyl-4-[3-(9H-carbazol-9-yl)propyl]piperazine] has an EC50 [1] of 49 µM, an EC50 ([1]; Mus musculus, 24 h) of ~45 µM and an EC50 [2] of 37 µM. The “Caspase-3 activation (in words)” value ([3]; compared to DMSO control) was “did not activate at all”, the EC50 [4] was 29 µM and the Ki ([5]; ref Ferorelli et al., 2007 [27]) was 0.0126 µM. For the same compound, the “Effect on tumor volume (in words)” value ([6]; Panc02 s.c. in female C57BL/6) was “did not confer a significantly different tumor volume than vehicle alone”, the EC50 [7] was 98 µM and the EC50 [8] was 62 µM. For the same compound, the “Mitochondrial superoxide generation in AsPC1” value [9] was “generated some mitochondrial superoxide”, the “Mitochondrial superoxide generation in BxPC3” value [10] was “generated some mitochondrial superoxide” and the EC50 [11] was > 100 µM. For the same compound, the EC50 [12] was 42 µM, the EC50 ([12]; Homo sapiens, BXPC-3, 24 h) was ~45 µM and the “Off-target effects by necropsy and laboratory evaluations” value [13] was “no major off-target effects”.
In the case of `Fc1cccc(F)c1[C@H]1CC[C@@H](N2CCN(C3CCCCC3)CC2)CC1` [PB282], the EC50 ([1]; Mus musculus, 24 h) is reported as > 100 µM, the EC50 [2] is reported as > 100 µM and the “Increase of caspase-3 activity compared to cells treated with DMSO vehicle” value [3] is reported as 11.8 fold. For the same compound, the “Cell death on co-treatment with NAC” value [14] was “even higher levels of cell death”, the EC50 [4] was 51 µM and the Ki ([5]; ref Abate, et al., 2011 [28]) was 0.0141 µM. For the same compound, the “Effect on tumor volume (in words)” value ([6]; Panc02 s.c. in female C57BL/6) was “decreased tumor volume similar to gemcitabine alone”, the “Mean tumor volume following conclusion of treatment” value ([6]; Panc02 s.c. in female C57BL/6, i.p. daily for two weeks (gemcitabine once weekly), vehicle mean = 924 mm^3) was 483 mm^3 and the Median survival ([6]; Panc02 tumor-bearing C57BL/6 mice, treatment discontinued on day 15, DMSO (vehicle) 23 days) was 29 days. The EC50 [7] was > 100 µM, the EC50 [8] was 90 µM and the “Increase in MitoSOX fluorescence intensity compared to cells treated with DMSO” value [15] was 6.7 fold. The EC50 [11] was > 100 µM, the EC50 ([12]; Homo sapiens, BXPC-3, 24 h) was > 100 µM and the “Off-target effects by necropsy and laboratory evaluations” value [13] was “no major off-target effects”. For the same compound, the Creatinine ([13]; not tumor-bearing C57BL/6 mice, n = 3, daily i.p., 5 days, control 0.34 ± 0.02) was 0.35 ± 0.03 mg/dL, the AST ([13]; not tumor-bearing C57BL/6 mice, n = 3, daily i.p., 5 days, control 5.6 ± 0.05) was 5.5 ± 0.07 μ/L and the RBC ([13]; not tumor-bearing C57BL/6 mice, n = 3, daily i.p., 5 days, control 7.14 ± 0.1) was 9.91 ± 0.31 10^6/μL. The WBC ([13]; not tumor-bearing C57BL/6 mice, n = 3, daily i.p., 5 days, control 10.58 ± 0.2) was 5.78 ± 0.78 10^3/μL, the HGB ([13]; not tumor-bearing C57BL/6 mice, n = 3, daily i.p., 5 days, control 10.7 ± 0.7) was 15 ± 0.4 g/dL and the MCH ([13]; not tumor-bearing C57BL/6 mice, n = 3, daily i.p., 5 days, control 15 ± 0.54) was 15.15 ± 0.05 pg. For the same compound, the BUN ([13]; not tumor-bearing C57BL/6 mice, n = 3, daily i.p., 5 days, control 27 ± 0.4) was 24.5 ± 0.5 mg/dL, the MCHC ([13]; not tumor-bearing C57BL/6 mice, n = 3, daily i.p., 5 days, control 29.2 ± 1.21) was 29.4 ± 0.3% and the HCT ([13]; not tumor-bearing C57BL/6 mice, n = 3, daily i.p., 5 days, control 36.6 ± 0.08) was 51.1 ± 1.9%. The MCV ([13]; not tumor-bearing C57BL/6 mice, n = 3, daily i.p., 5 days, control 51.2 ± 0.32) was 51.55 ± 0.35 fL, the ALT ([13]; not tumor-bearing C57BL/6 mice, n = 3, daily i.p., 5 days, control 260 ± 21) was 221 ± 63 μ/L and the Platelets ([13]; not tumor-bearing C57BL/6 mice, n = 3, daily i.p., 5 days, control 486 ± 67) was 649.5 ± 167.5 10^3/μL.
